Publication PMC6106897, “Biocatalytic synthesis of acylated derivatives of troxerutin: their bioavailability and antioxidant properties in vitro” (Microbial Cell Factories, 2018)

Assays:
[1] = Hydroxyl radical scavenging ability; settings: sample concentration 20 μM
Method: (§1) Scavenging abilities of hydroxyl and ABTS radicals, and ORAC were measured as described previously with some modifications. A 759S UV/Vis spectrophotometer (Lengguang Technology, Shanghai, China) was used to determine the absorbance of HO· at 532 nm and ABTS^·+ at 734 nm. ORAC analysis was conducted using a Fluoroskan Ascent microplate reader (Thermo Electron Corp., Waltham, MA, USA) at excitation and emission wavelengths of 485 and 530 nm, respectively. Trolox or vitamin C (VC) was used as a positive control, the sample concentration was 20 μM, and all experiments were repeated independently in triplicate.

[2] = ABTS radical scavenging ability; settings: sample concentration 20 μM
Method: as §1

[3] = Transport experiment in Caco-2 monolayers; format: in vitro ADME, human; settings: human, Caco-2
Method: (§2) The absorptions of troxerutin and its acylated derivatives was measured as described by Chen et al.. Caco-2 cells were cultured in DMEM supplemented with 10% FBS, 100 μg/mL streptomycin, and 100 U/mL penicillin at 37 °C in an atmosphere of 5% CO2 and the medium was changed every 2 days. Caco-2 cells used in this study were seeded onto 12-well translucent Transwell inserts (0.4 μm pore size, Corning Costar, Corning, NY, USA) at a density of 2.5 × 10^5 cells/mL and grown for 3 weeks. Transepithelial electrical resistance (TEER) and lucifer yellow were measured to detect the integrity of Caco-2 monolayers. TEER values were measured by using a voltammeter (Millicell ERS, Millipore, Bedford, MA, USA) and the amount of lucifer yellow transported to the basolateral side in a 2.5-h period was quantified by using a fluorospectrometer (Fluoroskan Ascent FL, Thermo Labsystems, Helsinki, Finland) at an excitation wavelength of 425 nm and emission wavelength of 530 nm. ALP activity was measured to detect the differentiation degree of Caco-2 monolayers by using an ALP Assay Kit.
(§3) Samples (100 μM, 0.5 mL) were placed on the apical (AP) side along with 1.5 mL of HBSS added to the basolateral (BL) side. […] The volume removed from the recipient side was replaced with fresh HBSS at 30, 60, 90, 120, and 150 min. The concentrations on the BL side were measured by HPLC. The apparent permeability coefficients (Papp, cm/s) were calculated according to the equation: Papp=dQ/dt×V/A×C0, where the dQ/dt is the permeability rate (μM/s) calculated from the slope of the amount of tested compounds transported versus time, V is the volume of the basolateral chamber (mL), A is the surface area of the inset (cm^2), and C0 is the initial concentration (μM) of the samples.

Caco-2 monolayers = experiment: Transport experiment in Caco-2 monolayers; format: in vitro ADME, human; settings: Caco-2 monolayers
Method: as §2, §3

[4] = after oral consumption; cited from earlier work
[5] = 1-octanol/water partition coefficient (logP); format: physicochemical
Method: The 1-octanol/water partition coefficients of troxerutin and its propionyl derivatives were measured as previously described. Each compound was fully mixed with 1-octanol and then vigorously mixed with an equal amount of water. After equilibration for 30 min, the concentrations of compound in each layer were respectively measured by HPLC. The results are shown as common logarithms (logP).

[6] = ORAC assay (fluorescence quenching induced by AAPH); settings: 20 μM
Method: as §1

erythrocytes = experiment: Erythrocyte hemolysis induced by AAPH; format: cell-based, sheep; settings: 20 μM sample, 200 mM AAPH, 2.5 h, 37 °C
Method: The hemolysis study was performed according to the method of Zhang et al. with some modifications. Erythrocytes from healthy sheep were centrifuged at 770×g for 10 min at 4 °C and washed three times with PBS. Equal amounts of erythrocyte suspension (20%, v/v) and sample solution (20 μM) were mixed and the mixture was incubated for 20 min at 37 °C. After adding 200 mM AAPH, incubation was continued for a further 2.5 h at the same temperature. The final reaction system was diluted with 8 mL PBS and then centrifuged at 1200×g for 10 min at 4 °C. The degree of hemolysis in the supernatant was determined by measuring the absorbance at 540 nm. To obtain the complete hemolysate, ultrapure water was added to the mixture. PBS was used as a negative control and Trolox was used as a positive control. These values were measured using a 756S UV/Vis spectrophotometer (Lengguang Technology). The treated supernatant was collected to measure the level of MDA. All experiments were performed independently in triplicate. The hemolysis rate was calculated using the equation: Hemolysis rate%=OD540of sample/OD540of complete hemolysis×100%.

[7] = system: erythrocyte lysate membrane lipid peroxidation; experiment: Lipid peroxidation (MDA release) after complete hemolysis; format: cell-based, sheep; settings: erythrocytes completely hemolysed in cold ultrapure water, lysate treated with AAPH

SMILES | Free radical scavenging ability HO· [1] | Free radical scavenging ability ABTS·+ [2] | Papp A→B at 150 min, 100 μM [3] [×10⁻⁶ cm/s] | Papp B→A at 150 min, 100 μM [3] [×10⁻⁶ cm/s] | Papp at 150 min, 100 μM [3] [×10⁻⁶ cm/s] | UR (uptake ratio = Papp AP–BL/Papp BL–AP) (Caco-2 monolayers) | Bioavailability [4] [%] | logP at 30 min [5] | Capacity to inhibit fluorescence quenching (ORAC), rank order [6] | Inhibition effects on AAPH-induced erythrocyte hemolysis, rank order (erythrocytes) | Inhibition of AAPH-induced erythrocyte hemolysis (erythrocytes) | Inhibition ability for membrane lipid peroxidation (MDA release), rank order [7]
O=C1O[C@H]([C@@H](O)CO)C(O)=C1O [VC, vitamin C, reference compound] | 99.3 ± 0.05 a % | 100 ± 0.02 a % |  |  |  |  |  |  |  |  |  | 
C[C@@H]1O[C@@H](OC[C@H]2O[C@@H](Oc3c(-c4ccc(O)c(O)c4)oc4cc(O)cc(O)c4c3=O)[C@H](O)[C@@H](O)[C@@H]2O)[C@H](O)[C@H](O)[C@H]1O [Rutin, rutin] |  |  | 0.06 ± 0.01 | 0.06 ± 0.02 | 0.06 | 1.00 ± 0.05 |  |  |  |  |  | 
CC(C)NCC(O)COc1cccc2ccccc12 (centres unmarked) [Propranolol] |  |  | 48.9 ± 3.3 | 44 ± 2.98 |  |  | > 90 |  |  |  |  | 
CCC(=O)OCCOc1cc(O)c2c(=O)c(OC3OC(COC4OC(C)C(O)C(O)C4O)C(O)C(O)C3O)c(-c3ccc(OCCOC(=O)CC)c(OCCO)c3)oc2c1 (centres unmarked) [TDE] | 89.7 ± 1.8 c % | 81.5 ± 2.1 c % | 1.54 ± 0.17 | 1.53 ± 0.21 |  |  |  | 1.51 ± 0.05 | troxerutin ≈ TME > TDE | troxerutin < TME ≈ TDE | effectively inhibited | troxerutin ≈ TME > TDE
C[C@@H]1O[C@@H](OC[C@H]2O[C@@H](Oc3c(-c4ccc(OCCO)c(OCCO)c4)oc4cc(OCCO)cc(O)c4c3=O)[C@H](O)[C@@H](O)[C@@H]2O)[C@H](O)[C@H](O)[C@H]1O [Troxerutin, troxerutin] | 97.1 ± 2.7 ab % | 96.8 ± 4.1 ab % | 0.34 ± 0.05 | 0.35 ± 0.03 |  |  |  |  | troxerutin ≈ TME > TDE | troxerutin < TME ≈ TDE | effectively inhibited | troxerutin ≈ TME > TDE
CCC(=O)OCCOc1ccc(-c2oc3cc(OCCO)cc(O)c3c(=O)c2OC2OC(COC3OC(C)C(O)C(O)C3O)C(O)C(O)C2O)cc1OCCO (centres unmarked) [TME] | 95.2 ± 3.5 b % | 90.4 ± 3.0 b % | 0.99 ± 0.12 | 1.05 ± 0.12 |  |  |  | < 0 | troxerutin ≈ TME > TDE | troxerutin < TME ≈ TDE | effectively inhibited | troxerutin ≈ TME > TDE
